Read-outs that look alike come from different tables or passages of the source.
What was measured:
Format in all cases: cell-based
[1] = tested on: Plasmodium falciparum, NF54 strain, IEF stage; assay: In vitro antimalarial activity, NF54 drug sensitive strain; details: for Pf SI (selectivity index for P. falciparum = IC50 L6/IC50 Pf): NF54 strain vs L6
Procedure: (§1) The in vitro activities against the protozoan parasites T.b. rhodesiense, and P. falciparum and cytotoxicity assessment against L6 cells were determined as reported elsewhere.

[2] = tested on: L6 rat skeletal myoblast cell line; assay: Cytotoxicity towards L6 cells; details: read-out: IC50 L6
Procedure: as §1

[3] = tested on: Trypanosoma brucei rhodesiense, STIB 900 strain, trypomastigotes stage; assay: In vitro anti-trypanosomal activity (growth inhibition); details: Trypanosoma brucei, read-out: IC50 T. b. rhod.
Procedure: as §1

[4] = Plasmodium falciparum, NF54 strain, IEF stage, average of two independent assays, read-out: IC50 P. falc.
[5] = L6 rat skeletal myoblast cell line, average of two independent assays
[6] = STIB 900 strain, trypomastigotes, average of two independent assays
[7] = NF54 strain, IEF stage, average of two independent assays, read-out: IC50 P. falc.

`CCN(CC)CCCC(C)Nc1ccnc2cc(Cl)ccc12` (stereo not shown) [Chloroquine, reference compound] was tested, and the IC50 ([1]; Plasmodium falciparum, NF54, read-out: IC50 P. falc.) was 4 nM.

For `O=C(NCCCCNCCCNC(=O)C(=O)c1c[nH]c2cc(Br)ccc12)C(=O)c1c[nH]c2cc(Br)ccc12.O=C(O)C(F)(F)F` [Compound 5, 4-(2-(6-Bromo-1H-indol-3-yl)-2-oxoacetamido)-N-(3-(2-(6-bromo-1H-indol-3-yl)-2-oxoacetamido)propyl)butan-1-aminium 2,2,2-trifluoroacetate], the “Pf SI (selectivity index for P. falciparum = IC50 L6/IC50 Pf)” value [1] was 22, the IC50 [1, 4] was 250 nM and the IC50 [2, 5] was 5500 nM.

In the case of `O=C(NCCCNCCCCNCCCNC(=O)C(=O)c1c[nH]c2cc(Br)ccc12)C(=O)c1c[nH]c2cc(Br)ccc12.O=C(O)C(F)(F)F.O=C(O)C(F)(F)F` [Compound 6, N^1,N^4-Bis(3-(2-(6-bromo-1H-indol-3-yl)-2-oxoacetamido)propyl)butane-1,4-diaminium 2,2,2-trifluoroacetate], the “Pf SI (selectivity index for P. falciparum = IC50 L6/IC50 Pf)” value [1] is reported as 21, the IC50 [1, 4] is reported as 360 nM and the IC50 [2, 5] is reported as 7700 nM.

For `CC(C)(C)OC(=O)N(CCCCCCCCN(CCCNC(=O)C(=O)c1c[nH]c2cc(Br)ccc12)C(=O)OC(C)(C)C)CCCNC(=O)C(=O)c1c[nH]c2cc(Br)ccc12` [Compound 7, Di-tert-butyl Octane-1,8-diylbis((3-(2-(6-bromo-1H-indol-3-yl)-2-oxoacetamido)propyl)carbamate)], the “Pf SI (selectivity index for P. falciparum = IC50 L6/IC50 Pf)” value [1] was 340, the IC50 [1, 4] was 270 nM and the IC50 [2, 5] was 92000 nM.

With `O=C(NCCCNCCCCCCCCNCCCNC(=O)C(=O)c1c[nH]c2cc(Br)ccc12)C(=O)c1c[nH]c2cc(Br)ccc12.O=C(O)C(F)(F)F.O=C(O)C(F)(F)F` [Compound 8, N^1,N^8-Bis(3-(2-(6-bromo-1H-indol-3-yl)-2-oxoacetamido)propyl)octane-1,8-diaminium 2,2,2-trifluoroacetate] the “Pf SI (selectivity index for P. falciparum = IC50 L6/IC50 Pf)” value [1] was 14, the IC50 [1, 4] was 410 nM and the IC50 [2, 5] was 5600 nM.

For `O=C(NCCCNCCCCNCCCNC(=O)C(=O)c1c[nH]c2ccccc12)C(=O)c1c[nH]c2ccccc12.O=C(O)C(F)(F)F.O=C(O)C(F)(F)F` [Compound 13, N^1,N^4-Bis(3-(2-(1H-indol-3-yl)-2-oxoacetamido)propyl)butane-1,4-diaminium 2,2,2-trifluoroacetate], the “Pf SI (selectivity index for P. falciparum = IC50 L6/IC50 Pf)” value [1] was 500, the IC50 [1, 4] was 120 nM and the IC50 [2, 5] was 60000 nM.

With `COc1ccc2[nH]cc(C(=O)C(=O)NCCCN(CCCCCCCCN(CCCNC(=O)C(=O)c3c[nH]c4ccc(OC)cc34)C(=O)OC(C)(C)C)C(=O)OC(C)(C)C)c2c1` [Compound 18, Di-tert-butyl Octane-1,8-diylbis((3-(2-(5-methoxy-1H-indol-3-yl)-2-oxoacetamido)propyl)carbamate)] the “Pf SI (selectivity index for P. falciparum = IC50 L6/IC50 Pf)” value [1] was no less than 920, the IC50 [1, 4] was 130 nM and the IC50 [3, 6] was 6200 nM. The IC50 [2, 5] was no less than 120000 nM.

`CC(C)(C)OC(=O)N(CCCCCCCCCCCCN(CCCNC(=O)C(=O)c1c[nH]c2ccccc12)C(=O)OC(C)(C)C)CCCNC(=O)C(=O)c1c[nH]c2ccccc12` [Compound 21, Di-tert-butyl Dodecane-1,12-diylbis((3-(2-(1H-indol-3-yl)-2-oxoacetamido)propyl)carbamate)] was tested, and the “Pf SI (selectivity index for P. falciparum = IC50 L6/IC50 Pf)” value [1] was no less than 67, the IC50 [1, 4] was 1800 nM and the IC50 [3, 6] was 61000 nM. It also gave an IC50 [2, 5] of no less than 120000 nM.

`COc1ccc2[nH]cc(C(=O)C(=O)NCCCN(CCCCCCCCCCCCN(CCCNC(=O)C(=O)c3c[nH]c4ccc(OC)cc34)C(=O)OC(C)(C)C)C(=O)OC(C)(C)C)c2c1` [Compound 22, Di-tert-butyl Dodecane-1,12-diylbis((3-(2-(5-methoxy-1H-indol-3-yl)-2-oxoacetamido)propyl)carbamate)] was tested, and the “Pf SI (selectivity index for P. falciparum = IC50 L6/IC50 Pf)” value [1] was 53, the IC50 [1, 4] was 360 nM and the IC50 [3, 6] was 5200 nM. For the same compound, the IC50 [2, 5] was 19000 nM.

With `COc1ccc2c(C(=O)C(=O)NCCCN(CCCCCCCCCCCCN(CCCNC(=O)C(=O)c3c[nH]c4cc(OC)ccc34)C(=O)OC(C)(C)C)C(=O)OC(C)(C)C)c[nH]c2c1` [Compound 23, Di-tert-butyl Dodecane-1,12-diylbis((3-(2-(6-methoxy-1H-indol-3-yl)-2-oxoacetamido)propyl)carbamate)] the “Pf SI (selectivity index for P. falciparum = IC50 L6/IC50 Pf)” value [1] was no less than 58, the IC50 [1, 4] was 1900 nM and the IC50 [3, 6] was 62000 nM. The IC50 [2, 5] was no less than 110000 nM.

With `COc1cccc2c(C(=O)C(=O)NCCCN(CCCCCCCCCCCCN(CCCNC(=O)C(=O)c3c[nH]c4c(OC)cccc34)C(=O)OC(C)(C)C)C(=O)OC(C)(C)C)c[nH]c12` [Compound 24, Di-tert-butyl Dodecane-1,12-diylbis((3-(2-(7-methoxy-1H-indol-3-yl)-2-oxoacetamido)propyl)carbamate)] the “Pf SI (selectivity index for P. falciparum = IC50 L6/IC50 Pf)” value [1] was no less than 65, the IC50 [1, 4] was 1700 nM and the IC50 [3, 6] was 63000 nM. For the same compound, the IC50 [2, 5] was no less than 110000 nM.

`O=C(NCCCNCCCCCCCCNCCCNC(=O)C(=O)c1c[nH]c2ccccc12)C(=O)c1c[nH]c2ccccc12.O=C(O)C(F)(F)F.O=C(O)C(F)(F)F` [Compound 25, N^1,N^8-Bis(3-(2-(1H-indol-3-yl)-2-oxoacetamido)propyl)octane-1,8-diaminium 2,2,2-trifluoroacetate] was tested, and the “Pf SI (selectivity index for P. falciparum = IC50 L6/IC50 Pf)” value [1] was 170, the IC50 [1, 4] was 110 nM and the IC50 [3, 6] was 2500 nM. It also gave an IC50 [2, 5] of 19000 nM.

With `COc1ccc2[nH]cc(C(=O)C(=O)NCCCNCCCCCCCCNCCCNC(=O)C(=O)c3c[nH]c4ccc(OC)cc34)c2c1.O=C(O)C(F)(F)F.O=C(O)C(F)(F)F` [Compound 26, N^1,N^8-Bis(3-(2-(5-methoxy-1H-indol-3-yl)-2-oxoacetamido)propyl)octane-1,8-diaminium 2,2,2-trifluoroacetate] the “Pf SI (selectivity index for P. falciparum = IC50 L6/IC50 Pf)” value [1] was 100, the IC50 [1, 4] was 130 nM and the IC50 [3, 6] was 780 nM. The IC50 [2, 5] was 13000 nM.

With `COc1ccc2c(C(=O)C(=O)NCCCNCCCCCCCCNCCCNC(=O)C(=O)c3c[nH]c4cc(OC)ccc34)c[nH]c2c1.O=C(O)C(F)(F)F.O=C(O)C(F)(F)F` [Compound 27, N^1,N^8-Bis(3-(2-(6-methoxy-1H-indol-3-yl)-2-oxoacetamido)propyl)octane-1,8-diaminium 2,2,2-trifluoroacetate] the “Pf SI (selectivity index for P. falciparum = IC50 L6/IC50 Pf)” value [1] was 120, the IC50 [1, 4] was 170 nM and the IC50 [3, 6] was 2200 nM. The IC50 [2, 5] was 21000 nM.

For `COc1cccc2c(C(=O)C(=O)NCCCNCCCCCCCCNCCCNC(=O)C(=O)c3c[nH]c4c(OC)cccc34)c[nH]c12.O=C(O)C(F)(F)F.O=C(O)C(F)(F)F` [Compound 28, N^1,N^8-Bis(3-(2-(7-methoxy-1H-indol-3-yl)-2-oxoacetamido)propyl)octane-1,8-diaminium 2,2,2-trifluoroacetate], the “Pf SI (selectivity index for P. falciparum = IC50 L6/IC50 Pf)” value [1] was 55, the IC50 [1, 4] was 120 nM and the IC50 [3, 6] was 2100 nM. The IC50 [2, 5] was 6600 nM.

For `O=C(NCCCNCCCCCCCCCCCCNCCCNC(=O)C(=O)c1c[nH]c2ccccc12)C(=O)c1c[nH]c2ccccc12.O=C(O)C(F)(F)F.O=C(O)C(F)(F)F` [Compound 29, N^1,N^12-Bis(3-(2-(1H-indol-3-yl)-2-oxoacetamido)propyl)dodecane-1,12-diaminium 2,2,2-trifluoroacetate], the “Pf SI (selectivity index for P. falciparum = IC50 L6/IC50 Pf)” value [1] was 70, the IC50 [1, 4] was 33 nM and the IC50 [3, 6] was 270 nM. For the same compound, the IC50 [2, 5] was 2300 nM.

In the case of `CC(C)(C)OC(=O)N(CCCCCCCCN(CCCNC(=O)Cc1c[nH]c2ccccc12)C(=O)OC(C)(C)C)CCCNC(=O)Cc1c[nH]c2ccccc12` [Compound 34, Di-tert-butyl Octane-1,8-diylbis((3-(2-(1H-indol-3-yl)acetamido)propyl)carbamate)], the “Pf SI (selectivity index for P. falciparum = IC50 L6/IC50 Pf)” value [1] is reported as 17, the IC50 [1, 4] is reported as 300 nM and the IC50 [2, 5] is reported as 5000 nM.

For `CC(C)(C)OC(=O)N(CCCCCCCCCCCCN(CCCNC(=O)Cc1c[nH]c2ccccc12)C(=O)OC(C)(C)C)CCCNC(=O)Cc1c[nH]c2ccccc12` [Compound 35, Di-tert-butyl Dodecane-1,12-diylbis((3-(2-(1H-indol-3-yl)acetamido)propyl)carbamate)], the “Pf SI (selectivity index for P. falciparum = IC50 L6/IC50 Pf)” value [1] was 56, the IC50 [1, 4] was 800 nM and the IC50 [2, 5] was 45000 nM.

With `O=C(Cc1c[nH]c2ccccc12)NCCCNCCCCCCCCNCCCNC(=O)Cc1c[nH]c2ccccc12.O=C(O)C(F)(F)F.O=C(O)C(F)(F)F` [Compound 37, N^1,N^8-Bis(3-(2-(1H-indol-3-yl)acetamido)propyl)octane-1,8-diaminium 2,2,2-trifluoroacetate] the “Pf SI (selectivity index for P. falciparum = IC50 L6/IC50 Pf)” value [1] was 430, the IC50 [1, 4] was 150 nM and the IC50 [2, 5] was 64000 nM.

With `O=C(Cc1c[nH]c2ccccc12)NCCCNCCCCCCCCCCCCNCCCNC(=O)Cc1c[nH]c2ccccc12.O=C(O)C(F)(F)F.O=C(O)C(F)(F)F` [Compound 38, N^1,N^12-Bis(3-(2-(1H-indol-3-yl)acetamido)propyl)dodecane-1,12-diaminium 2,2,2-trifluoroacetate] the “Pf SI (selectivity index for P. falciparum = IC50 L6/IC50 Pf)” value [1] was 160, the IC50 [1, 4] was 120 nM and the IC50 [2, 5] was 19000 nM.

Compound `Nc1nc(N)nc(Nc2ccc([As]3SCC(CO)S3)cc2)n1` (stereo not shown) [Melarsoprol, reference compound] has an IC50 [3] of 5 nM.

`COc1cc([C@@H]2c3cc4c(cc3[C@H](O)[C@H]3COC(=O)[C@H]23)OCO4)cc(OC)c1OC` [Podophyllotoxin, reference compound] showed an IC50 ([2]; Rattus norvegicus, Myoblast) of 19 nM.

For “N^1,N^4-Bis(3-(2-(5-methoxy-1H-indol-3-yl)acetamido)propyl)butane-1,4-diaminium 2,2,2-trifluoroacetate [Compound 14]”, the “Pf SI (selectivity index for P. falciparum = IC50 L6/IC50 Pf)” value [1] was 120, the IC50 [1, 7] was 470 nM and the IC50 [2, 5] was 56000 nM.

In the case of “N^1,N^4-Bis(3-(2-(6-methoxy-1H-indol-3-yl)acetamido)propyl)butane-1,4-diaminium 2,2,2-trifluoroacetate [Compound 15]”, the “Pf SI (selectivity index for P. falciparum = IC50 L6/IC50 Pf)” value [1] is reported as 110, the IC50 [1, 7] is reported as 500 nM and the IC50 [2, 5] is reported as 54000 nM.
